Among the data in patent US20240390340A1 (INCYTE CORPORATION, priority 2023, published 2024) are IC50 values, retold here.

One test concerns the target KRAS G12V (Homo sapiens, UniProt P01116, G12V). Briefly: GDP-GTP exchange assay (bodipy-GDP/GppNHp, SOS1), KRAS G12V. Format: biochemical.
The next test deals with KRAS G12D (Homo sapiens, UniProt P01116, G12D). Briefly: GDP-GTP exchange assay (bodipy-GDP/GppNHp, SOS1), KRAS G12D. The format is biochemical.
[1] abbreviates: KRAS G12V mutant, value for the most potent isomer quoted for certain compounds, read-out: G12V (KRAS G12V exchange assay IC50).
Where [2] appears, read: bodipy-loaded KRAS G12D 2.5 nM, 4 h pre-incubation, value for the most potent isomer quoted for certain compounds, read-out: G12D (KRAS G12D exchange assay IC50).

The structures appear in SMILES notation. Read-outs that look alike come from different tables or passages of the source. A value given as a limit tells only on which side of the number the result lay.

Chain of KRAS G12D (P01116 1-188 isoform P01116-2 G12D): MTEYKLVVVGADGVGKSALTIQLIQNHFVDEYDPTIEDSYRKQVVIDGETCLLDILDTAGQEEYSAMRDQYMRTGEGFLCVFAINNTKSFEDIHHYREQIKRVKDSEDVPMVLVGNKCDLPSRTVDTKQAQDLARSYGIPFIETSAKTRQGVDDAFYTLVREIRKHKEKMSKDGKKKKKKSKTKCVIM
Chain of KRAS G12V (P01116 1-188 isoform P01116-2 G12V): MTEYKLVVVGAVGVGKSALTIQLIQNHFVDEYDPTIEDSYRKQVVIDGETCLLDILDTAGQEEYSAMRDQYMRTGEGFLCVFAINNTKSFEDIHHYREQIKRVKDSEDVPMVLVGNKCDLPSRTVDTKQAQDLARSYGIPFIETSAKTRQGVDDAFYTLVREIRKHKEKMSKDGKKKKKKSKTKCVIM

As a reminder, the IC50 is the concentration that inhibits the measured activity by half. With `Cc1nc2c(F)c(-c3cccc(Cl)c3Cl)c(CCC#N)cc2c2c1cc([C@H]1C[C@H](Oc3ccn(C)n3)CN1C(=O)C1CC1)n2[C@H]1[C@H]2CN[C@@H]1C2` [Example 170], the half-maximal inhibitory concentration (IC50) on KRAS G12V (setting [1]) and on KRAS G12D (setting [2]) was ≤ 100 nM each time.

In the case of `Cc1nc2c(F)c(-c3cccc(Cl)c3Cl)c(CCC#N)cc2c2c1cc([C@H]1C[C@H](OCC3CCOCC3)CN1C(=O)C1CC1)n2[C@H]1[C@H]2CN[C@@H]1C2` [Example 29], the concentration for half-maximal inhibition (IC50) is ≤ 100 nM on KRAS G12V (Table H, column G12V, for compounds isolated as several atropisomers/diastereoisomers the value for the most potent isomer is quoted, read-out: KRAS G12V exchange assay IC50) and ≤ 100 nM at KRAS G12D (Table H, column G12D, for compounds isolated as several atropisomers/diastereoisomers the value for the most potent isomer is quoted, read-out: KRAS G12D exchange assay IC50).

On to `COc1cc(C#N)ccc1O[C@H]1C[C@H](c2cc3c(C)nc4c(F)c(-c5cccc(Cl)c5Cl)c(CCC#N)cc4c3n2[C@H]2[C@H]3CN[C@@H]2C3)N(C(=O)C2CC2)C1` [Example 292], for which the IC50 at KRAS G12V (setting [1]) and at KRAS G12D (setting [2]) was ≤ 100 nM throughout.

With `Cc1nc2c(F)c(-c3cccc(Cl)c3Cl)c(CCC#N)cc2c2c1cc([C@H]1C[C@H](OCc3ncco3)CN1C(=O)C1CC1)n2[C@H]1[C@H]2CN[C@@H]1C2` [Example 104], the IC50 at KRAS G12V (setting [1]) is 100 to 1000 nM; on KRAS G12D (setting [2]), ≤ 100 nM.

In the case of `Cc1nc2c(F)c(-c3cccc(Cl)c3Cl)c(CCC#N)cc2c2c1cc([C@H]1C[C@H](Oc3ccnn3C(F)(F)F)CN1C(=O)C1CC1)n2[C@H]1[C@H]2CN[C@@H]1C2` [Example 406], the IC50 on KRAS G12V (setting [1]) and on KRAS G12D (setting [2]) was ≤ 100 nM throughout.

In the case of `CCOC(=O)c1cnn([C@H]2C[C@H](c3cc4c(C)nc5c(F)c(-c6cccc(Cl)c6Cl)c(CCC#N)cc5c4n3[C@H]3[C@H]4CN[C@@H]3C4)N(C(=O)C3CC3)C2)n1` [Example 393], the half-inhibitory concentration (IC50) at KRAS G12V (setting [1]) and at KRAS G12D (setting [2]) was ≤ 100 nM in each case.

With `Cc1nc2c(F)c(-c3cccc(Cl)c3Cl)c(CCC#N)cc2c2c1cc([C@H]1C[C@H](OCc3cocn3)CN1C(=O)C1CC1)n2[C@H]1[C@H]2CN[C@@H]1C2` [Example 112], the half-maximal inhibitory concentration (IC50) on KRAS G12V (setting [1]) and at KRAS G12D (setting [2]) was ≤ 100 nM in each case.

For `Cc1nc2c(F)c(-c3cccc(Cl)c3Cl)c(CCC#N)cc2c2c1cc([C@H]1C[C@H](OCC3(C)CC(F)(F)C3)CN1C(=O)C1CC1)n2[C@H]1[C@H]2CN[C@@H]1C2` [Example 412], the IC50 at KRAS G12V (setting [1]) and at KRAS G12D (setting [2]) was ≤ 100 nM throughout.

`Cc1nc2c(F)c(-c3cccc(Cl)c3Cl)c(CCC#N)cc2c2c1cc([C@H]1C[C@H](OCc3cncs3)CN1C(=O)C1CC1)n2[C@H]1[C@H]2CN[C@@H]1C2` [Example 97]: the concentration for half-maximal inhibition (IC50) at KRAS G12V (setting [1]) and on KRAS G12D (setting [2]) was ≤ 100 nM each time.

Consider `Cc1nc2c(F)c(-c3cccc(Cl)c3Cl)c(CCC#N)cc2c2c1cc([C@H]1C[C@H](OC3CCC(O)CC3)CN1C(=O)C1CC1)n2[C@H]1[C@H]2CN[C@@H]1C2` (stereo partly drawn) [Example 336], for which the half-maximal inhibitory concentration (IC50) at KRAS G12V (setting [1]) and on KRAS G12D (setting [2]) was ≤ 100 nM in each case.

For the compound `COc1ncc(Br)cc1O[C@H]1C[C@H](c2cc3c(C)nc4c(F)c(-c5cccc(Cl)c5Cl)c(CCC#N)cc4c3n2[C@H]2[C@H]3CN[C@@H]2C3)N(C(=O)C2CC2)C1` [Example 450], the IC50 at KRAS G12V (setting [1]) and on KRAS G12D (setting [2]) was ≤ 100 nM in each case.

Take `COC(=O)c1ccc(-c2nnn([C@H]3C[C@H](c4cc5c(C)nc6c(F)c(-c7cccc(Cl)c7Cl)c(CCC#N)cc6c5n4[C@H]4[C@H]5CN[C@@H]4C5)N(C(=O)C4CC4)C3)n2)cc1` [Example 435]: the concentration for half-maximal inhibition (IC50) at KRAS G12V (setting [1]) and at KRAS G12D (setting [2]) was ≤ 100 nM throughout.

As to `Cc1cn([C@H]2C[C@H](c3cc4c(C)nc5c(F)c(-c6cccc(Cl)c6Cl)c(CCC#N)cc5c4n3[C@H]3[C@H]4CN[C@@H]3C4)N(C(=O)C3CC3)C2)cn1` [Example 282], the 50% inhibitory concentration (IC50) on KRAS G12V (setting [1]) and on KRAS G12D (setting [2]) was ≤ 100 nM each time.

Turning to `Cc1nc2c(F)c(-c3cccc(Cl)c3Cl)c(CCC#N)cc2c2c1cc([C@H]1C[C@H](Oc3cnn(CC(F)F)c3C)CN1C(=O)C1CC1)n2[C@H]1[C@H]2CN[C@@H]1C2` [Example 410], the 50% inhibitory concentration (IC50) on KRAS G12V (setting [1]) and at KRAS G12D (setting [2]) was ≤ 100 nM each time.

As to `Cc1nc2c(F)c(-c3cccc(Cl)c3Cl)c(CCC#N)cc2c2c1cc([C@H]1C[C@H](Oc3cccc(C(=O)N4CCOCC4)c3)CN1C(=O)C1CC1)n2[C@H]1[C@H]2CN[C@@H]1C2` [Example 222], the IC50 at KRAS G12V (setting [1]) and at KRAS G12D (setting [2]) was ≤ 100 nM each time.

For the compound `Cc1nnn([C@H]2C[C@H](c3cc4c(C)nc5c(F)c(-c6cccc(Cl)c6Cl)c(CCC#N)cc5c4n3[C@H]3[C@H]4CN[C@@H]3C4)N(C(=O)C3CC3)C2)c1CO` [Example 327], the IC50 on KRAS G12V (setting [1]) and on KRAS G12D (setting [2]) was ≤ 100 nM in each case.

For `Cc1nc2c(F)c(-c3cccc(Cl)c3Cl)c(CCC#N)cc2c2c1cc([C@H]1C[C@H](n3ncnn3)CN1C(=O)C1CC1)n2[C@H]1[C@H]2CN[C@@H]1C2` [Example 396], the half-maximal inhibitory concentration (IC50) at KRAS G12V (setting [1]) and at KRAS G12D (setting [2]) was ≤ 100 nM each time.

`Cc1nc2c(F)c(-c3cccc(Cl)c3Cl)c(CCC#N)cc2c2c1cc([C@H]1C[C@H](Oc3cn(C)nc3C(F)F)CN1C(=O)C1CC1)n2[C@H]1[C@H]2CN[C@@H]1C2` [Example 299]: the IC50 on KRAS G12V (setting [1]) and at KRAS G12D (setting [2]) was ≤ 100 nM in each case.

For `Cc1ccnc(O[C@H]2C[C@H](c3cc4c(C)nc5c(F)c(-c6cccc(Cl)c6Cl)c(CCC#N)cc5c4n3[C@H]3[C@H]4CN[C@@H]3C4)N(C(=O)C3CC3)C2)c1` [Example 422], the IC50 at KRAS G12V (setting [1]) and at KRAS G12D (setting [2]) was ≤ 100 nM throughout.

With `Cc1csnc1C(C)O[C@H]1C[C@H](c2cc3c(C(C)O)nc4c(F)c(-c5cccc(Cl)c5Cl)c(CCC#N)cc4c3n2[C@H]2[C@H]3CN[C@@H]2C3)N(C(=O)C2CC2)C1` (stereo partly drawn) [Example 334], the half-maximal inhibitory concentration (IC50) on KRAS G12V (setting [1]) and on KRAS G12D (setting [2]) was ≤ 100 nM throughout.

As for `Cc1nc2c(F)c(-c3cccc(Cl)c3Cl)c(CCC#N)cc2c2c1cc([C@H]1C[C@H](n3cnc(C4CCC4)n3)CN1C(=O)C1CC1)n2[C@H]1[C@H]2CN[C@@H]1C2` [Example 347], the IC50 at KRAS G12V (setting [1]) and at KRAS G12D (setting [2]) was ≤ 100 nM in each case.

As for `Cc1nc2c(F)c(-c3cccc(Cl)c3Cl)c(CCC#N)cc2c2c1cc([C@H]1C[C@H](n3nnc(-c4ccccc4)n3)CN1C(=O)C1CC1)n2[C@H]1[C@H]2CN[C@@H]1C2` [Example 399], the IC50 on KRAS G12V (setting [1]) and at KRAS G12D (setting [2]) was ≤ 100 nM in each case.

As for `CCOC(=O)c1cn([C@H]2C[C@H](c3cc4c(C)nc5c(F)c(-c6cccc(Cl)c6Cl)c(CCC#N)cc5c4n3[C@H]3[C@H]4CN[C@@H]3C4)N(C(=O)C3CC3)C2)nn1` [Example 394], the IC50 on KRAS G12V (setting [1]) and at KRAS G12D (setting [2]) was ≤ 100 nM throughout.

Turning to `COc1ccnc(O[C@H]2C[C@H](c3cc4c(C)nc5c(F)c(-c6cccc(Cl)c6Cl)c(CCC#N)cc5c4n3[C@H]3[C@H]4CN[C@@H]3C4)N(C(=O)C3CC3)C2)c1` [Example 328], the IC50 on KRAS G12V (setting [1]) and at KRAS G12D (setting [2]) was ≤ 100 nM throughout.

As to `COc1ccccc1O[C@H]1C[C@H](c2cc3c(C)nc4c(F)c(-c5cccc(Cl)c5Cl)c(CCC#N)cc4c3n2[C@H]2[C@H]3CN[C@@H]2C3)N(C(=O)C2CC2)C1` [Example 250], the half-maximal inhibitory concentration (IC50) on KRAS G12V (setting [1]) and at KRAS G12D (setting [2]) was ≤ 100 nM throughout.

With `Cc1nc2c(F)c(-c3cccc(Cl)c3Cl)c(CCC#N)cc2c2c1cc([C@H]1C[C@H](OC3CCc4ccccc43)CN1C(=O)C1CC1)n2[C@H]1[C@H]2CN[C@@H]1C2` (stereo partly drawn) [Example 337], the results for the IC50 at KRAS G12V (setting [1]) and at KRAS G12D (setting [2]) were 100 to 1000 nM and ≤ 100 nM, respectively.

As to `Cc1nc2c(F)c(-c3cccc(Cl)c3Cl)c(CCC#N)cc2c2c1cc([C@H]1C[C@H](Oc3cnccc3C#N)CN1C(=O)C1CC1)n2[C@H]1[C@H]2CN[C@@H]1C2` [Example 302], the half-inhibitory concentration (IC50) at KRAS G12V (setting [1]) and on KRAS G12D (setting [2]) was ≤ 100 nM throughout.

Consider `Cc1nc2c(F)c(-c3cccc(Cl)c3Cl)c(CCC#N)cc2c2c1cc([C@H]1C[C@H](Oc3ccccc3C#N)CN1C(=O)C1CC1)n2[C@H]1[C@H]2CN[C@@H]1C2` [Example 249], for which the 50% inhibitory concentration (IC50) at KRAS G12V (setting [1]) and at KRAS G12D (setting [2]) was ≤ 100 nM each time.

Consider `Cc1ncccc1CO[C@H]1C[C@H](c2cc3c(C)nc4c(F)c(-c5cccc(Cl)c5Cl)c(CCC#N)cc4c3n2[C@H]2[C@H]3CN[C@@H]2C3)N(C(=O)C2CC2)C1` [Example 139], for which the IC50 at KRAS G12V (setting [1]) and at KRAS G12D (setting [2]) was ≤ 100 nM in each case.

Consider `COc1cc(O[C@H]2C[C@H](c3cc4c(C)nc5c(F)c(-c6cccc(Cl)c6Cl)c(CCC#N)cc5c4n3[C@H]3[C@H]4CN[C@@H]3C4)N(C(=O)C3CC3)C2)ccn1` [Example 304], for which the IC50 at KRAS G12V (setting [1]) and at KRAS G12D (setting [2]) was ≤ 100 nM throughout.

Consider `COc1cccnc1O[C@H]1C[C@H](c2cc3c(C)nc4c(F)c(-c5cccc(Cl)c5Cl)c(CCC#N)cc4c3n2[C@H]2[C@H]3CN[C@@H]2C3)N(C(=O)C2CC2)C1` [Example 307], for which the IC50 at KRAS G12V (setting [1]) and at KRAS G12D (setting [2]) was 100 to 1000 nM in each case.

Consider `Cc1nc2c(F)c(-c3cccc(Cl)c3Cl)c(CCC#N)cc2c2c1cc([C@H]1C[C@H](Oc3ncco3)CN1C(=O)C1CC1)n2[C@H]1[C@H]2CN[C@@H]1C2` [Example 188], for which the IC50 on KRAS G12V (setting [1]) and at KRAS G12D (setting [2]) was 5000 to 10000 nM in each case.

`Cc1nc(CO[C@H]2C[C@H](c3cc4c(C)nc5c(F)c(-c6cccc(Cl)c6Cl)c(CCC#N)cc5c4n3[C@H]3[C@H]4CN[C@@H]3C4)N(C(=O)C3CC3)C2)cs1` [Example 107]: the 50% inhibitory concentration (IC50) on KRAS G12V (setting [1]) and on KRAS G12D (setting [2]) was ≤ 100 nM in each case.
